According to patent publication US9771359B1, “Substituted oxazole- and thiazole-based carboxamide and urea derivatives as vanilloid receptor ligands II” (MEDIFRON DBT INC., priority 2014, dated 2017):

Target: vanilloid receptor 1 (VR1/TRPV1) (Homo sapiens (Human), UniProt Q8NER1)
Assay: FLIPR assay, Ca2+ influx in CHO K1 cells transfected with the human VR1 gene
Type: cell-based
Details: for compound-alone effect on Ca2+ influx (agonist / partial agonist): compound 5 μM, % activation compared with control capsaicin 10 μM; for Ki: displacement of capsaicin 100 nM, Ki from IC50 by Cheng-Prusoff equation, read-out: (f) Ki (human) [nM] Cap; for inhibition at 5 µM: CHO-K1, @5 μM test compound, capsaicin 100 nM, read-out: inhibition (as a percentage), Cap
Description: Furthermore, preference may be given to compounds according to the first aspect of the invention that cause a 50% displacement of capsaicin, which is present at a concentration of 100 nM, in a FLIPR assay with CHO K1 cells which were transfected with the human VR1 gene at a concentration of less than 2 000 nM, preferably less than 1 000 nM, particularly preferably less than 300 nM, most particularly preferably less than 100 nM, even more preferably less than 75 nM, additionally preferably less than 50 nM, most preferably less than 10 nM. In the process, the Ca^2+ influx is quantified in the FLIPR assay with the aid of a Ca^2+-sensitive dye (type Fluo-4, Molecular Probes Europe BV, Leiden, the Netherlands) in a fluorescent imaging plate reader (FLIPR, Molecular Devices, Sunnyvale, USA), as described hereinafter.
The FLIPR protocol consists of 2 substance additions during a kinetic measurement. First the compounds to be tested (5 μM) are pipetted onto the cells and the Ca^2+ influx is determined in comparison to the control (capsaicin 10 μM), providing the result as % activation and representing the compound-alone effect (calculation at peak signal related to baseline). […] After 5 min incubation, the Ca^2+ influx is related to an injection of 100 nM of capsaicin and thereby the antagonistic effect of the test compounds detected.
Desensitising agonists and antagonists lead to suppression of the Ca^2+ influx. The % inhibition is calculated compared to the maximum achievable inhibition with 10 μM of capsaicin. Triple analyses (n=3) are carried out and repeated in at least 3 independent experiments.
Starting from the percentage displacement caused by different concentrations of the compounds to be tested of general formula I, IC50 inhibitory concentrations which cause a 50-% displacement of capsaicin were calculated. Ki values for the test substances were obtained by conversion by means of the Cheng-Prusoff equation (Cheng, Prusoff; Biochem. Pharmacol. 22, 3099-3108, 1973).
Chinese hamster ovary cells (CHO K1 cells, European Collection of Cell Cultures (ECACC) United Kingdom) are stably transfected with the VR1 gene. For functional testing, these cells are plated out on poly-D-lysine-coated black 96-well plates having a clear base (BD Biosciences, Heidelberg, Germany) at a density of 25,000 cells/well. The cells are incubated overnight at 37° C. and 5% CO2 in a culture medium (Ham's F12 nutrient mixture, 10% by volume of FCS (foetal calf serum), 18 μg/ml of L-proline). The next day the cells are incubated with Fluo-4 (Fluo-4 2 μM, 0.01% by volume of Pluronic F127, Molecular Probes in HBSS (Hank's buffered saline solution), Gibco Invitrogen GmbH, Karlsruhe, Germany) for 30 min at 37° C. Subsequently, the plates are washed three times with HBSS buffer and after further incubation for 15 min at RT used for Ca^2+ measurement in a FLIPR assay. The Ca^2+-dependent fluorescence is measured before and after the addition of the substances to be tested (λex wavelength=488 nm, λem=540 nm). Quantification is carried out by measuring the highest fluorescence intensity (FC, fluorescence counts) over time.

Sequence of vanilloid receptor 1 (VR1/TRPV1) (Q8NER1 whole entry): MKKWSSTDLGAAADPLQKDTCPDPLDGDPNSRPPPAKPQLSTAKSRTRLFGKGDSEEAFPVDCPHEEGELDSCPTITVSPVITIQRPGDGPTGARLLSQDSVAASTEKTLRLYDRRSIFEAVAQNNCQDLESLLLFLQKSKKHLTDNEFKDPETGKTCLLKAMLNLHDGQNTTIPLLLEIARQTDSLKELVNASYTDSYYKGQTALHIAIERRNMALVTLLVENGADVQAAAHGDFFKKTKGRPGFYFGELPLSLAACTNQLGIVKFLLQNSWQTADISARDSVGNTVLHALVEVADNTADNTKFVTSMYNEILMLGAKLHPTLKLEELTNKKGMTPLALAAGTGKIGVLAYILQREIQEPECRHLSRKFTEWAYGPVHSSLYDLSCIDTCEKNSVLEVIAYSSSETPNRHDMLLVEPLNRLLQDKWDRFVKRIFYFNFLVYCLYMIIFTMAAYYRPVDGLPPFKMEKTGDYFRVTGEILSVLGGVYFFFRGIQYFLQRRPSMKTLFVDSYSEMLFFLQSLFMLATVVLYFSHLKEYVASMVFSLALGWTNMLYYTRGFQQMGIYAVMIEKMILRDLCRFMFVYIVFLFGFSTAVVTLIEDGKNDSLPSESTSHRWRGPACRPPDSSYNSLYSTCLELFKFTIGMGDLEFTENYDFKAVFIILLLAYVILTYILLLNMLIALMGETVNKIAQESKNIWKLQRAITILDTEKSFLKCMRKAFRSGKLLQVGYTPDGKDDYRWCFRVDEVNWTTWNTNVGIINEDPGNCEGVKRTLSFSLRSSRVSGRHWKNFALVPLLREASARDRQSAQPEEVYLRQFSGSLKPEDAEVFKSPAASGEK

Ki [nM] | inhibition at 5 µM [%] | SMILES | compound-alone effect on Ca2+ influx (agonist / partial agonist)
73.1 |  | CC(C)(C)c1nc(-c2cccc(Cl)c2)c(CNC(=O)Nc2ccc(CO)nc2)o1 [EX-25, 1-((2-(tert-butyl)-4-(3-chlorophenyl)oxazol-5-yl)methyl)-3-(6-(hydroxymethyl)pyridin-3-yl)urea] | pAG (A Ca^2+ influx of 10%-60% reveals a partial agonist (pAG))
10.2 |  | CC(C)(C)c1nc(-c2cccc(Cl)c2)c(CNC(=O)Nc2ccc(CO)nc2)s1 [EX-26, 1-((2-(tert-butyl)-4-(3-chlorophenyl)thiazol-5-yl)methyl)-3-(6-(hydroxymethyl)pyridin-3-yl)urea] | pAG (A Ca^2+ influx of 10%-60% reveals a partial agonist (pAG))
62.5 |  | O=C(NCc1oc(C(F)(F)F)nc1-c1cccc(Cl)c1)Nc1ccc(CO)nc1 [EX-27, 1-((4-(3-chlorophenyl)-2-(trifluoromethyl)oxazol-5-yl)methyl)-3-(6-(hydroxymethyl)pyridin-3-yl)urea] | 
19.4 |  | O=C(NCc1sc(C(F)(F)F)nc1-c1cccc(Cl)c1)Nc1ccc(CO)nc1 [EX-28, 1-((4-(3-chlorophenyl)-2-(trifluoromethyl)thiazol-5-yl)methyl)-3-(6-(hydroxymethyl)pyridin-3-yl)urea] | 
 | 41 | CS(=O)(=O)CCc1ccc(NC(=O)NCc2oc(C(F)(F)F)nc2-c2cccc(Cl)c2)cn1 [EX-30, 1-((4-(3-chlorophenyl)-2-(trifluoromethyl)oxazol-5-yl)methyl)-3-(6-(2-(methylsulfonyl)ethyl)pyridin-3-yl)urea] | 
48.8 |  | CS(=O)(=O)CCc1ccc(NC(=O)NCc2sc(C(F)(F)F)nc2-c2cccc(Cl)c2)cn1 [EX-31, 1-((4-(3-chlorophenyl)-2-(trifluoromethyl)thiazol-5-yl)methyl)-3-(6-(2-(methylsulfonyl)ethyl)pyridin-3-yl)urea] | 
60.8 |  | O=C(NCc1oc(C(F)(F)F)nc1-c1cccc(Cl)c1)Nc1ccc(N2CC(O)C2)nc1 [EX-32, 1-((4-(3-chlorophenyl)-2-(trifluoromethyl)oxazol-5-yl)methyl)-3-(6-(3-hydroxyazetidin-1-yl)pyridin-3-yl)urea] | 
24.6 |  | O=C(NCc1sc(C(F)(F)F)nc1-c1cccc(Cl)c1)Nc1ccc(N2CC(O)C2)nc1 [EX-33, 1-((4-(3-chlorophenyl)-2-(trifluoromethyl)thiazol-5-yl)methyl)-3-(6-(3-hydroxyazetidin-1-yl)pyridin-3-yl)urea] | 
30.2 |  | O=C(NCc1sc(C(F)(F)F)nc1-c1cccc(Cl)c1)Nc1ccc(CCO)nc1 [EX-34, 1-((4-(3-chlorophenyl)-2-(trifluoromethyl)thiazol-5-yl)methyl)-3-(6-(2-hydroxyethyl)pyridin-3-yl)urea] | pAG (A Ca^2+ influx of 10%-60% reveals a partial agonist (pAG))
78.4 |  | CC(C)(C)c1nc(-c2cccc(Cl)c2)c(CNC(=O)Nc2ccc(CCO)nc2)o1 [EX-35, 1-((2-(tert-butyl)-4-(3-chlorophenyl)oxazol-5-yl)methyl)-3-(6-(2-hydroxyethyl)pyridin-3-yl)urea] | 
 |  | CC(C)(C)c1nc(-c2cccc(Cl)c2)c(CNC(=O)Nc2ccc(CCO)nc2)s1 [EX-36, 1-((2-(tert-butyl)-4-(3-chlorophenyl)thiazol-5-yl)methyl)-3-(6-(2-hydroxyethyl)pyridin-3-yl)urea] | AG (a Ca^2+ influx of >60% relates to a pure agonist (AG))
 | 46 | O=C(NCc1oc(C(F)(F)F)nc1-c1cccc(Cl)c1)Nc1ccc(CCO)nc1 [EX-37, 1-((4-(3-chlorophenyl)-2-(trifluoromethyl)oxazol-5-yl)methyl)-3-(6-(2-hydroxyethyl)pyridin-3-yl)urea] | 
52.6 |  | CC(C)(C)c1nc(-c2cccc(Cl)c2)c(CNC(=O)Nc2ccc(CNS(C)(=O)=O)cc2)o1 [EX-38, N-(4-(3-((2-(tert-butyl)-4-(3-chlorophenyl)oxazol-5-yl)methyl)ureido)benzyl)methanesulfonamide] | 
